According to PMC10746543, “Design principles for cyclin K molecular glue degraders” (Nature Chemical Biology, 2023):
Values joined by “and” are separate entries in the source; they are usually repeats but may differ in a detail not shown here. Equal entries are not always repeated. Where two headings read alike, the source gives them in different places.

Experiments:
CDK12–cyclin K and DDB1 = biological target: T1, CDK12–cyclin K and DDB1 (Homo sapiens, UniProt Q16531+Q9NYV4, K965R); assay: TR-FRET ternary complex formation assay (compound titration); assay type: binding; settings: for TR-FRET signal at compound concentration: replicate titrations
T1 construct: His6–CDK12 (a.a. 713–1,052); full-length or beta-propeller B domain deletion (ΔBPB: a.a. 396–705 deleted) constructs of His6–DDB1ΔBPB, StrepII–Avi–DDB1, or His6–Spy–DDB1; made in house; host or cells: Trichoplusia ni High Five insect cells (baculovirus)
T1 sequence (Q9NYV4 713-1052 K965R): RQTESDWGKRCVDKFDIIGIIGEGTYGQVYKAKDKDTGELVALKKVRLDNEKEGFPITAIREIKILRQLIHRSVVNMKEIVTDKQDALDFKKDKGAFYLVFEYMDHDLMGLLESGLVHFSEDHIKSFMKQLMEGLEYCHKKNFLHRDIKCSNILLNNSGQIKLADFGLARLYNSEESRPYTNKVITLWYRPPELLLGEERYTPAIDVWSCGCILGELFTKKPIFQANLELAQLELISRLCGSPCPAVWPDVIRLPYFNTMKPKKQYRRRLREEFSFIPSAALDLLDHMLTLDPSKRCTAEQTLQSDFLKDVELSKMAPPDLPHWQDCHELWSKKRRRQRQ
T1 sequence (O75909 1-267 partner): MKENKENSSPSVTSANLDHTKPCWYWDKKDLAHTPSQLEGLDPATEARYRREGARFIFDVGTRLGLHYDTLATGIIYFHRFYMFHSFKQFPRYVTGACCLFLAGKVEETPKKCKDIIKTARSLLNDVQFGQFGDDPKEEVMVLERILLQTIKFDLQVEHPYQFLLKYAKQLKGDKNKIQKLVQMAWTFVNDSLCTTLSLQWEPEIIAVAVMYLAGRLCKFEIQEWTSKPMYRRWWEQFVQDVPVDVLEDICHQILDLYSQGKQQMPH
T1 sequence (Q16531 whole entry): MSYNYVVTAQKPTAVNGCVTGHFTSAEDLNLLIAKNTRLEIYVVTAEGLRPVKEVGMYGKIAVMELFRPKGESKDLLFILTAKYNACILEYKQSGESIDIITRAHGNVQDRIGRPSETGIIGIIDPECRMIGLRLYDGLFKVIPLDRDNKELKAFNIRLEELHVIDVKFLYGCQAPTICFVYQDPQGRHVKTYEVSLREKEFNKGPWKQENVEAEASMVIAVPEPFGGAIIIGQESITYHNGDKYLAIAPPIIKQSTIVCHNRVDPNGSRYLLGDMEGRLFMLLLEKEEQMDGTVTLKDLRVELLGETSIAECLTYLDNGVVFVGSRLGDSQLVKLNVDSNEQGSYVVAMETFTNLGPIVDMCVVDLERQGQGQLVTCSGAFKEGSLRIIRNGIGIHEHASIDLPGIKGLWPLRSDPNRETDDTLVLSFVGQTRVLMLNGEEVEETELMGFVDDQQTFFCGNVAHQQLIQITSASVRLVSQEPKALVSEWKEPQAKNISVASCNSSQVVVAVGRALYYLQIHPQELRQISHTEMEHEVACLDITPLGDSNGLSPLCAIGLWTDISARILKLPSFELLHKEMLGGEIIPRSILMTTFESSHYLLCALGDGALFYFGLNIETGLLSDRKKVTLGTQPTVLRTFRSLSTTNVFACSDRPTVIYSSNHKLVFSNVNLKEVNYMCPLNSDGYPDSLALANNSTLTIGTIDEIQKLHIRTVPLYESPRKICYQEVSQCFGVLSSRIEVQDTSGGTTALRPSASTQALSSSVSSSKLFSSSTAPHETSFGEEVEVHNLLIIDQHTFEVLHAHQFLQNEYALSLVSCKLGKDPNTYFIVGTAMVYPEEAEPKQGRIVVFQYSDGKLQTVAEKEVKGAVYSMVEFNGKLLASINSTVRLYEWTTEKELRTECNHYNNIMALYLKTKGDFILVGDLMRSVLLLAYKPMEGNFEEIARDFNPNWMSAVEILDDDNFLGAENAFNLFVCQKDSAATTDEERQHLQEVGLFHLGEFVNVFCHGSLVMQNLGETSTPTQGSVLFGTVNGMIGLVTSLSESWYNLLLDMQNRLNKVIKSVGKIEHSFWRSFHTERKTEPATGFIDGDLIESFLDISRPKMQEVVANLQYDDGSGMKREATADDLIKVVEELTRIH
How it was run: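 Read-out used a 70 μs delay to cut background fluorescence; TR-FRET signal taken as the 520 nm/490 nm emission ratio.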

[1] = test system: cyclin K–eGFP degradation reporter; assay: Cyclin K reporter stability analysis (dual-color cyclin K–eGFP reporter); assay type: cell-based, human
How it was run: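 Readout was the eGFP-to-mCherry geometric-mean ratio by flow cytometry, normalized to three DMSO controls, after 5 h drug exposure. Cells used were HEK293T–Cas9 expressing the dual-colour cyclin K–eGFP degradation reporter.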

HEK293T cells = assay: Drug sensitivity assay (CellTiter-Glo viability) with or without MLN4924 pretreatment; assay type: cell-based, human; settings: for EC50: Homo sapiens, HEK-293T; for Toxicity rescue: MLN4924-mediated cytotoxicity rescue, 10 µM used where n.d.
How it was run: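 HEK293T–Cas9 cells at 0.15 × 10^6 ml^−1 were treated with DMSO or 100 nM MLN4924 before plating. Test drugs were added 2 h later and exposure lasted 3 days. Viability was read by CellTiter-Glo luminescence and expressed relative to DMSO controls.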

[2] = compound concentration 79.2001 nM
[3] = compound concentration 158.4 nM
[4] = compound concentration 309.6 nM
[5] = compound concentration 626.401 nM
[6] = compound concentration 1252.8 nM
[7] = compound concentration 9936.01 nM
[8] = compound concentration 20016 nM
[9] = Supplementary Table 2, HEK293T cycK-eGFP reporter, 5 h, read-out: Cellular assays DC50
[10] = Supplementary Table 2, HEK293T viability, 72 h, compound alone, read-out: Cellular assays EC50
[11] = sheet MOESM7, read-out: log TR-FRET EC50 (converted)

| TR-FRET signal, individual replicate (CDK12–cyclin K and DDB1; compound concentration 4.68 nM) | TR-FRET signal, individual replicate (CDK12–cyclin K and DDB1; compound concentration 21.6 nM) | TR-FRET signal, individual replicate (CDK12–cyclin K and DDB1; compound concentration 36 nM) | TR-FRET signal, individual replicate (CDK12–cyclin K and DDB1; [2]) | TR-FRET signal, individual replicate (CDK12–cyclin K and DDB1; [3]) | TR-FRET signal, individual replicate (CDK12–cyclin K and DDB1; [4]) | TR-FRET signal, individual replicate (CDK12–cyclin K and DDB1; [5]) | TR-FRET signal, individual replicate (CDK12–cyclin K and DDB1; [6]) | TR-FRET signal, individual replicate (CDK12–cyclin K and DDB1; compound concentration 2448 nM) | TR-FRET signal, individual replicate (CDK12–cyclin K and DDB1; [7]) | TR-FRET signal, individual replicate (CDK12–cyclin K and DDB1; [8]) | DC50 [1, 9] | EC50 (CDK12–cyclin K and DDB1; [11]) | Compound | EC50 (HEK293T cells; [10]) | Toxicity rescue (HEK293T cells; Supplementary Table 2) | further results |
| --- | --- | --- | --- | --- | --- | --- | --- | --- | --- | --- | --- | --- | --- | --- | --- | --- |
| 0.1908 and 0.2636 | 0.201 and 0.2304 | 0.2177 and 0.2395 | 0.2212 and 0.2472 | 0.2411 and 0.2679 | 0.2728 and 0.306 | 0.3075 and 0.349 | 0.3712 and 0.4097 | 0.4307 and 0.4643 | 0.5169 and 0.5543 | 0.5088 and 0.5368 | > 10 µM |  | CC[C@H](CO)Nc1nc(NCCC2CC2)c2ncn(C(C)C)c2n1 [DS37] | > 10 µM | 0% |  |
| 0.1996 and 0.2467 | 0.2088 and 0.2442 | 0.2151 and 0.2401 | 0.2234 and 0.2572 | 0.237 and 0.2667 | 0.2597 and 0.2826 | 0.3077 and 0.3432 | 0.3992 and 0.4242 | 0.5328 and 0.5897 | 1.042 and 1.049 | 1.225 and 1.271 | > 10 µM | 5740 nM | CC[C@H](CO)Nc1nc(NCCC2CCCCCCC2)c2ncn(C(C)C)c2n1 [DS38] | > 10 µM | 0% | EC50 (CDK12–cyclin K and DDB1; Supplementary Table 2, read-out: TR-FRET EC50 TR-FRET): 5740 nM |
|  |  |  |  |  |  |  |  |  |  |  | > 10 µM | 1300 nM | CC[C@H](CO)Nc1nc(NCCOCc2ccccc2)c2ncn(C(C)C)c2n1 [DS40] | > 10 µM | 0% | TR-FRET signal (CDK12–cyclin K and DDB1; compound concentration 4.68 nM): 0.2076 and 0.2321; TR-FRET signal (CDK12–cyclin K and DDB1; compound concentration 21.6 nM): 0.2226 and 0.2483; TR-FRET signal (CDK12–cyclin K and DDB1; compound concentration 36 nM): 0.2561 and 0.2746; TR-FRET signal (CDK12–cyclin K and DDB1; [2]): 0.3133 and 0.3047; TR-FRET signal (CDK12–cyclin K and DDB1; [3]): 0.4014 and 0.4131; TR-FRET signal (CDK12–cyclin K and DDB1; [4]): 0.5676 and 0.5799; TR-FRET signal (CDK12–cyclin K and DDB1; [5]): 0.7977 and 0.8028; TR-FRET signal (CDK12–cyclin K and DDB1; [6]): 1.088 and 1.118; TR-FRET signal (CDK12–cyclin K and DDB1; compound concentration 2448 nM): 1.44 and 1.508; TR-FRET signal (CDK12–cyclin K and DDB1; [7]): 1.852 and 2.056; TR-FRET signal (CDK12–cyclin K and DDB1; [8]): 1.876 and 2.063 |
|  |  |  |  |  |  |  |  |  |  |  |  | 43.7 nM | CC[C@H](CO)Nc1nc(NCc2ccn(-c3cccc(Cl)c3)n2)c2ncn(C(C)C)c2n1 [DS43] | 1.26 µM | 697% | TR-FRET signal at compound concentration (CDK12–cyclin K and DDB1; compound concentration 0.468 nM): 0.2854 and 0.3016; TR-FRET signal at compound concentration (CDK12–cyclin K and DDB1; compound concentration 2.16 nM): 0.3338 and 0.3545; TR-FRET signal at compound concentration (CDK12–cyclin K and DDB1; compound concentration 3.6 nM): 0.4308 and 0.466; TR-FRET signal at compound concentration (CDK12–cyclin K and DDB1; compound concentration 7.92001 nM): 0.6201 and 0.666; TR-FRET signal at compound concentration (CDK12–cyclin K and DDB1; compound concentration 15.84 nM): 0.9968 and 1.0413; TR-FRET signal at compound concentration (CDK12–cyclin K and DDB1; compound concentration 30.96 nM): 1.655 and 1.7184; TR-FRET signal at compound concentration (CDK12–cyclin K and DDB1; compound concentration 62.6401 nM): 2.415 and 2.607; TR-FRET signal at compound concentration (CDK12–cyclin K and DDB1; compound concentration 125.28 nM): 3.042 and 3.307; TR-FRET signal at compound concentration (CDK12–cyclin K and DDB1; compound concentration 244.8 nM): 3.43 and 3.794; TR-FRET signal at compound concentration (CDK12–cyclin K and DDB1; compound concentration 993.601 nM): 3.717 and 4.015; TR-FRET signal at compound concentration (CDK12–cyclin K and DDB1; compound concentration 2001.6 nM): 3.6778 and 3.923; EC50 (CDK12–cyclin K and DDB1; in vitro complex formation, 50 nM CDK12–cyclin K, 100 nM DDB1, text and figures, read-out: TR-FRET EC50): 44 ± 2 nM; EC50 (CDK12–cyclin K and DDB1; source data sheet correlations, read-out: TR-FRET EC50): 43.7 nM; DC50 ([1]; source data sheet correlations, read-out: DC50): 0.075 µM; EC50 (HEK293T cells; Supplementary Fig. 5, HEK293T, CellTiter Glo, 72h, pre-treatment with 100 nM MLN4924, read-out: Viability EC50, with MLN4924): 15.5 µM; % MLN4924 rescue (HEK293T cells; PCA input): 649% |
